Experimental data: patent US8017828B2, “Utilization of rare sugars in plant or microorganism” (Shikoku Research Institute Incorporated, priority 2004, dated 2011)

What was measured:
[1] = tested on: cherry tomato plant “mini carol”; test: Growth of cherry tomato seedlings with D-allose in nutrient solution; assay type: in vivo; design: key to Number of opening flowers: z: Bud formation could not be confirmed; conditions: for Fresh leaf weight / Fresh stem weight / Number of leaves / Number of opening flowers / Stem diameter / Stem length: 4 weeks
Procedure: On Jul. 13, 2004, seeds of a cherry tomato plant “mini carol” (Sakata Seed Co., Ltd.) were sown one by one in the respective holes using 30 holes among the 253 holes of a rockwool (280 mm (width)×580 mm (length)), which was placed in a plastic container with a capacity of 8 L. In this plastic container, 1 L of each nutrient solution in which a fertilizer (Otsuka No. 1 (1.5 g/L) and Otsuka No. 2 (1.0 g/L)) was dissolved was poured, then, the cultivation was carried out in a glass chamber without heating. With regard to a treated plot, 7 treated plots in which a treatment liquid obtained by adding D-allose at 0 to 5 mM to the fertilizer nutrient solution was poured in the plastic container from July 20 when the seeds germinated completely were prepared. Incidentally, the treatment liquid was added in the same amount to the respective treated plots according to need. A survey was carried out with regard to the growth at 4 weeks after the initiation of the treatment.

[2] = tested on: Arabidopsis thaliana Lan dsberg erecta (LER); test: Germination of Arabidopsis thaliana with 8 ketoses; assay type: in vivo; conditions: 100 mM aqueous solution
Procedure: An effect of 8 types of ketoses on germination of Arabidopsis thaliana LER series which was an experimental plant was examined.
Two sheets of filter paper were placed in a dish with a diameter of 3.5 cm, and 30 seeds of Arabidopsis thaliana Lan dsberg erecta (LER) were sown per dish, and 0.5 mL of a treatment liquid was poured therein. Then, the dishes were placed in an environment control chamber under the condition of a constant temperature of 25° C. and 24-hour day length (fluorescent lamp, 70 μmol/m^2/s). After the sowing, a survey was carried out with regard to the number of seeds that germinated at 24-hour interval. As the treatment liquid, 100 mM, 10 mM and 1 mM aqueous solutions of any of D-fructose, D-psicose, D-tagatose, D-sorbose, L-fructose, L-psicose, L-tagatose and L-sorbose, and distilled water were used. The procedure was repeated three times for the respective treatment liquids.

[3] = tested on: Fusarium oxysporum (IFO 31213 strain); assay type: in vivo, tomato plant (variety: “House Momotaro”)
Procedure: By using a tomato plant and a strain of Fusarium oxysporum, which is a typical pathogenic bacterium of tomato, an effect of D-psicose during infection in a stage of raising seedlings thereof was examined.
To be more specific, seeds of a tomato plant (variety: “House Momotaro”) were subjected to an immersion treatment by immersing them in a 0.01% (w/v) D-psicose solution or a 0.007% (w/v) probenazole solution for 15 minutes while stirring slowly, followed by air-drying on sterile gauze, and then used as treated seeds. In the medium culture for raising seedlings (pete:pearlite:vermiculite=2:1:1), 0.01% (w/v) D-psicose or 0.007% (w/v) probenazole was mixed, and the soil was placed in black polypot plant containers with a diameter of 9 cm, and then, 4 seeds of the above treated seeds were sown in each pot. The seeds (20 seeds in total) were sown in 5 pots for each test plot. After sowing, the pots were placed in a growth chamber at 23° C. and 5,000 Lux (12-hour day length), and raising of seedlings was initiated. At 1 month and 2 months after the initiation of raising of seedlings, a suspension of mycelium of Fusarium oxysporum (IFO 31213 strain) was inoculated around the roots, whereby infection with Fusarium oxysporum was caused. After the inoculation of Fusarium oxysporum, the temperature was raised to 30° C., and cultivation was continued. At about 4 months after sowing, a survey was carried out with regard to the survival rate of plants, the conditions of browning of vascular bundles and roots, the stem diameter and the like.

Fusarium oxysporum = test: Table 12: plants with or without Fusarium oxysporum, seed and medium treated with D-psicose; assay type: in vivo
[4] = tested on: tomato plant (variety: “House Momotaro”); test: Germination of D-psicose treated tomato seeds on agar without Fusarium oxysporum; assay type: in vivo; conditions: no Fusarium oxysporum; D-psicose seed 0.05%, medium non
Procedure: To be more specific, seeds of a tomato plant (variety: “House Momotaro”) were subjected to an immersion treatment by immersing them in a D-psicose solution at a concentration of from 0.01% (w/v) to 0.1% (w/v) for 15 minutes while stirring slowly, followed by air-drying on sterile gauze, and then used as treated seeds. […] At this time, test plots in which D-psicose was added to the agar medium at a concentration of from 0.01% (w/v) to 0.1% (w/v) were prepared. Then, the dishes were placed at 23° C. under the dark condition for 7 days to 10 days, and observation was carried out with regard to the elongation of shoot, the elongation of root, the shoot development rate, the infection state in root and the like.

[5] = Fusarium oxysporum added, D-psicose seed 0.01%, medium 0.01%
[6] = Fusarium oxysporum added, D-psicose seed 0.01%, medium non
[7] = Fusarium oxysporum added, D-psicose seed 0.10%, medium 0.10%
[8] = Fusarium oxysporum added, D-psicose seed 0.10%, medium non
[9] = Fusarium oxysporum without addition, D-psicose seed 0.10%, medium non

O=C[C@H](O)[C@H](O)[C@H](O)[C@H](O)CO [D-allose]
flowering ([1]; 0.01 mM): promoting flowering
promotion of growth in the stem length in comparison with the untreated plot ([1]; 0.01 mM): 33%
promotion of growth in the stem weight in comparison with the untreated plot ([1]; 0.01 mM): 67%
growth ([1]; 5 mM): some growth inhibition
Fresh leaf weight ([1]; D-allose 0.01 mM): 10.9 g
Fresh stem weight ([1]; D-allose 0.01 mM): 16.4 g
Number of leaves ([1]; D-allose 0.01 mM): 9.3
Number of opening flowers ([1]; D-allose 0.01 mM): 0.6
Stem diameter ([1]; D-allose 0.01 mM): 5.3 mm
Stem length ([1]; D-allose 0.01 mM): 69.1 cm
Fresh leaf weight ([1]; D-allose 0.05 mM): 6.9 g
Fresh stem weight ([1]; D-allose 0.05 mM): 11.7 g
Number of leaves ([1]; D-allose 0.05 mM): 8.9
Number of opening flowers ([1]; D-allose 0.05 mM): 0.4
Stem diameter ([1]; D-allose 0.05 mM): 4.3 mm
Stem length ([1]; D-allose 0.05 mM): 60.9 cm
Fresh leaf weight ([1]; D-allose 0.1 mM): 8.6 g
Fresh stem weight ([1]; D-allose 0.1 mM): 11.1 g
Number of leaves ([1]; D-allose 0.1 mM): 9.0
Number of opening flowers ([1]; D-allose 0.1 mM): 0.0
Stem diameter ([1]; D-allose 0.1 mM): 4.3 mm
Stem length ([1]; D-allose 0.1 mM): 56.7 cm
Fresh leaf weight ([1]; D-allose 0.5 mM): 8.3 g
Fresh stem weight ([1]; D-allose 0.5 mM): 11.2 g
Number of leaves ([1]; D-allose 0.5 mM): 8.3
Number of opening flowers ([1]; D-allose 0.5 mM): 0.0
Stem diameter ([1]; D-allose 0.5 mM): 4.5 mm
Stem length ([1]; D-allose 0.5 mM): 57.0 cm
Fresh leaf weight ([1]; D-allose 1.0 mM): 9.7 g
Fresh stem weight ([1]; D-allose 1.0 mM): 13.7 g
Number of leaves ([1]; D-allose 1.0 mM): 9.6
Number of opening flowers ([1]; D-allose 1.0 mM): 0.0
Stem diameter ([1]; D-allose 1.0 mM): 4.8 mm
Stem length ([1]; D-allose 1.0 mM): 59.0 cm
Fresh leaf weight ([1]; D-allose 5.0 mM): 4.8 g
Fresh stem weight ([1]; D-allose 5.0 mM): 6.7 g
Number of leaves ([1]; D-allose 5.0 mM): 7.0
Number of opening flowers ([1]; D-allose 5.0 mM): z
Stem diameter ([1]; D-allose 5.0 mM): 4.2 mm
Stem length ([1]; D-allose 5.0 mM): 40.4 cm

O=C(CO)[C@H](O)[C@H](O)[C@H](O)CO [D-psicose]
inhibition of germination [2]: clearly inhibited
degree of chemical damage (yellow discoloration of leaves) ([3]; in vivo): smaller than that of the case of probenazole
Vascular bundle browning ratio ([3]; seed immersion (0.01% D-psicose or 0.007% probenazole), no seed treatment 25%): 5%
Stem diameter ([3]; seed immersion treatment): increased
inhibitory effect on Fusarium wilt ([3]; seed immersion with D-psicose solution): equal to or more than that of probenazole
Aerial part weight (Fusarium oxysporum; [5]): 3.1 g
Leaf browning ratio (Fusarium oxysporum; [5]): 5%
Plant length (Fusarium oxysporum; [5]): 17.6 cm
Survival rate (Fusarium oxysporum; [5]): 50%
Vascular bundle browning ratio (Fusarium oxysporum; [5]): 45%
Aerial part weight (Fusarium oxysporum; [6]): 1.9 g
Leaf browning ratio (Fusarium oxysporum; [6]): 100%
Plant length (Fusarium oxysporum; [6]): 14.5 cm
Survival rate (Fusarium oxysporum; [6]): 28%
Vascular bundle browning ratio (Fusarium oxysporum; [6]): 39%
Aerial part weight (Fusarium oxysporum; [7]): 3.3 g
Leaf browning ratio (Fusarium oxysporum; [7]): 13%
Plant length (Fusarium oxysporum; [7]): 13.8 cm
Survival rate (Fusarium oxysporum; [7]): 25%
Vascular bundle browning ratio (Fusarium oxysporum; [7]): 38%
Aerial part weight (Fusarium oxysporum; [8]): 2.2 g
Leaf browning ratio (Fusarium oxysporum; [8]): 100%
Plant length (Fusarium oxysporum; [8]): 13.9 cm
Survival rate (Fusarium oxysporum; [8]): 16%
Vascular bundle browning ratio (Fusarium oxysporum; [8]): 60%
Aerial part weight (Fusarium oxysporum; [9]): 2.2 g
Leaf browning ratio (Fusarium oxysporum; [9]): 0%
Plant length (Fusarium oxysporum; [9]): 17.8 cm
Survival rate (Fusarium oxysporum; [9]): 100%
Vascular bundle browning ratio (Fusarium oxysporum; [9]): 0%
Root length [4]: 7.4 cm
Shoot length [4]: 6.7 cm
